For orientation: IC50 means the concentration at which inhibition is half-maximal.

This passage reports IC50 results from US11124538B2, “Neuroactive steroids, compositions, and uses thereof” (Sage Therapeutics, Inc., priority 2015, dated 2021).

Where only a bound is given, the exact number is not on record here.

The experiment addresses [35S]-TBPS binding to rat brain cortical membranes in the presence of 5 μM GABA (GABA receptor complex). The experiment is described as follows: Steroid inhibition of [35S]-TBPS binding (radioligand displacement). Particulars: 3 nM [35S]-TBPS. As for the experimental part: TBPS binding assays using rat brain cortical membranes in the presence of 5 μM GABA has been described (Gee et al, J. Pharmacol. Exp. Ther. 1987, 241, 346-353; Hawkinson et al, Mol. Pharmacol. 1994, 46, 977-985; Lewin, A. H et al., Mol. Pharmacol. 1989, 35, 189-194).
Briefly, cortices are rapidly removed following decapitation of carbon dioxide-anesthetized Sprague-Dawley rats (200-250 g). The cortices are homogenized in 10 volumes of ice-cold 0.32 M sucrose using a glass/teflon homogenizer and centrifuged at 1500×g for 10 min at 4° C. The resultant supernatants are centrifuged at 10,000×g for 20 min at 4° C. to obtain the P2 pellets. The P2 pellets are resuspended in 200 mM NaCl/50 mM Na—K phosphate pH 7.4 buffer and centrifuged at 10,000×g for 10 min at 4° C. This washing procedure is repeated twice and the pellets are resuspended in 10 volumes of buffer. Aliquots (100 μL) of the membrane suspensions are incubated with 3 nM [^35S]-TBPS and 5 μL aliquots of test drug dissolved in dimethyl sulfoxide (DMSO) (final 0.5%) in the presence of 5 μM GABA. The incubation is brought to a final volume of 1.0 mL with buffer. […] Following a 90 min incubation at room temp, the assays are terminated by filtration through glass fiber filters (Schleicher and Schuell No. 32) using a cell harvester (Brandel) and rinsed three times with ice-cold buffer. Filter bound radioactivity is measured by liquid scintillation spectrometry. Non-linear curve fitting of the overall data for each drug averaged for each concentration is done using Prism (GraphPad). […] The concentration of test compound producing 50% inhibition (IC50) of specific binding and the maximal extent of inhibition (Imax) are determined for the individual experiments with the same model used for the overall data and then the means±SEM.s of the individual experiments are calculated.
Various compounds are or can be screened to determine their potential as modulators of [^35S]-TBPS binding in vitro. These assays are or can be performed in accordance with the above discussed procedures.
(In general: In a radioligand displacement assay an active substance lowers the binding of a labelled ligand.)
In the case of `COC[C@]12CC[C@@](C)(O)C[C@H]1CC[C@H]1[C@@H]3CC[C@H](C(=O)Cn4nnc5ccc(OC)cc54)[C@@]3(C)CC[C@@H]12` [Compound 25], the IC50 is under 10 nM.

On to `COC[C@]12CC[C@@](C)(O)C[C@H]1CC[C@H]1[C@@H]3CC[C@H](C(=O)Cn4nc5cc(Cl)cnc5n4)[C@@]3(C)CC[C@@H]12` [Compound 13], for which the half-maximal inhibitory concentration (IC50) is under 10 nM.

Turning to `COC[C@]12CC[C@@](C)(O)C[C@H]1CC[C@H]1[C@@H]3CC[C@H](C(=O)Cn4nc5ccc(Cl)c(F)c5n4)[C@@]3(C)CC[C@@H]12` [Compound 24], the IC50 is under 10 nM.

As to `CC(C)OC[C@]12CC[C@@](C)(O)C[C@H]1CC[C@H]1[C@@H]3CC[C@H](C(=O)Cn4ncnn4)[C@@]3(C)CC[C@@H]12` [Compound 72], the 50% inhibitory concentration (IC50) was under 10 nM.

On to `COC[C@]12CC[C@@](C)(O)C[C@@H]1CC[C@H]1[C@@H]3CC[C@H](C(=O)Cn4ncc(CO)n4)[C@@]3(C)CC[C@@H]12` [Compound 85], for which the IC50 is over 500 nM.

As to `COC[C@]12CC[C@@](C)(O)C[C@@H]1CC[C@H]1[C@@H]3CC[C@H](C(=O)Cn4cc(SC)cn4)[C@@]3(C)CC[C@@H]12` [Compound 34], the IC50 was in the range of 10 to 50 nM.

As for `COC[C@]12CC[C@@](C)(O)C[C@H]1CC[C@H]1[C@@H]3CC[C@H](C(=O)Cn4nnc5c(OC)cccc54)[C@@]3(C)CC[C@@H]12` [Compound 28], the 50% inhibitory concentration (IC50) is under 10 nM.

For the compound `COC[C@]12CC[C@@](C)(O)C[C@H]1CC[C@H]1[C@@H]3CC[C@H](C(=O)Cn4cc5ccncc5n4)[C@@]3(C)CC[C@@H]12` [Compound 46], the IC50 lay within 10 to 50 nM.

For `CC(C)OC[C@]12CC[C@@](C)(O)C[C@H]1CC[C@H]1[C@@H]3CC[C@H](C(=O)Cn4nc5ccc(F)c(F)c5n4)[C@@]3(C)CC[C@@H]12` [Compound 70], the 50% inhibitory concentration (IC50) is under 10 nM.

`COC[C@]12CC[C@@](C)(O)C[C@@H]1CC[C@H]1[C@@H]3CC[C@H](C(=O)Cn4cc(C(=O)O)nn4)[C@@]3(C)CC[C@@H]12` [Compound 82]: the IC50 is over 500 nM.

Consider `COC[C@]12CC[C@@](C)(O)C[C@H]1CC[C@H]1[C@@H]3CC[C@H](C(=O)Cn4nnc5cccc(OC)c54)[C@@]3(C)CC[C@@H]12` [Compound 29], for which the concentration for half-maximal inhibition (IC50) was under 10 nM.

With `COC[C@]12CC[C@@](C)(O)C[C@H]1CC[C@H]1[C@@H]3CC[C@H](C(=O)Cn4nnc5ccccc54)[C@@]3(C)CC[C@@H]12` [Compound 18], the half-maximal inhibitory concentration (IC50) was under 10 nM.

Take `CC(C)OC[C@]12CC[C@@](C)(O)C[C@H]1CC[C@H]1[C@@H]3CC[C@H](C(=O)Cn4nnc5c(F)c(F)ccc54)[C@@]3(C)CC[C@@H]12` [Compound 68]: the IC50 is under 10 nM.

Take `COC[C@]12CC[C@@](C)(O)C[C@H]1CC[C@H]1[C@@H]3CC[C@H](C(=O)Cn4cc(SC)cn4)[C@@]3(C)CC[C@@H]12` [Compound 21]: the IC50 was under 10 nM.

Take `COC[C@]12CC[C@@](C)(O)C[C@H]1CC[C@H]1[C@@H]3CC[C@H](C(=O)Cn4ncc5ccc(F)cc54)[C@@]3(C)CC[C@@H]12` [Compound 15]: the IC50 is under 10 nM.

As to `COC[C@]12CC[C@@](C)(O)C[C@@H]1CC[C@H]1[C@@H]3CC[C@H](C(=O)Cn4nnc5c(F)c(Cl)ccc54)[C@@]3(C)CC[C@@H]12` [Compound 51], the 50% inhibitory concentration (IC50) is under 10 nM.

For the compound `COC[C@]12CC[C@@](C)(O)C[C@H]1CC[C@H]1[C@@H]3CC[C@H](C(=O)Cn4cc5ccc(F)cc5n4)[C@@]3(C)CC[C@@H]12` [Compound 14], the IC50 is under 10 nM.

As for `CC(C)OC[C@]12CC[C@@](C)(O)C[C@H]1CC[C@H]1[C@@H]3CC[C@H](C(=O)Cn4nnc5ccc(F)c(F)c54)[C@@]3(C)CC[C@@H]12` [Compound 69], the IC50 was under 10 nM.

On to `COC[C@]12CC[C@@](C)(O)C[C@H]1CC[C@H]1[C@@H]3CC[C@H](C(=O)Cn4nnc5cc(Cl)cnc54)[C@@]3(C)CC[C@@H]12` [Compound 12], for which the IC50 is under 10 nM.

`COC[C@]12CC[C@@](C)(O)C[C@H]1CC[C@H]1[C@@H]3CC[C@H](C(=O)Cn4nnc5cc(OC)ccc54)[C@@]3(C)CC[C@@H]12` [Compound 26]: the 50% inhibitory concentration (IC50) is under 10 nM.

For the compound `COC[C@]12CC[C@@](C)(O)C[C@H]1CC[C@H]1[C@@H]3CC[C@H](C(=O)Cn4nc5ccc(OC)cc5n4)[C@@]3(C)CC[C@@H]12` [Compound 27], the concentration for half-maximal inhibition (IC50) is under 10 nM.

For `COC[C@]12CC[C@@](C)(O)C[C@H]1CC[C@H]1[C@@H]3CC[C@H](C(=O)Cn4nc5cc(F)cc(F)c5n4)[C@@]3(C)CC[C@@H]12` [Compound 10], the IC50 is under 10 nM.

With `COC[C@]12CC[C@@](C)(O)C[C@H]1CC[C@H]1[C@@H]3CC[C@H](C(=O)Cn4nc5cccc(OC)c5n4)[C@@]3(C)CC[C@@H]12` [Compound 30], the IC50 is under 10 nM.

As to `COC[C@]12CC[C@@](C)(O)C[C@@H]1CC[C@H]1[C@@H]3CC[C@H](C(=O)Cn4cc([S+](C)[O-])cn4)[C@@]3(C)CC[C@@H]12` (stereo partly shown) [Compound 35], the IC50 was over 500 nM.

As for `COC[C@]12CC[C@@](C)(O)C[C@@H]1CC[C@H]1[C@@H]3CC[C@H](C(=O)Cn4ncc(C(=O)O)n4)[C@@]3(C)CC[C@@H]12` [Compound 81], the 50% inhibitory concentration (IC50) was over 500 nM.
